The subject of test [1] is IRS1. In words: IRS1 Ser-phosphorylation and IRS1 levels in MCF7 cells. It counts as cell-based. To be noted: breast cancer MCF7 cells. The protocol: (§1) Tyrosine autophosphorylation of the β-subunit of IGF1R as well as downstream signaling induced by IGF1R were assayed in breast cancer MCF7 cells. Tyrosine autophosphorylation of the EGFR and the EGFR signaling was assayed in prostate cancer PC3 cells. Tyrosine autophosphorylation of the PDGFR and its signaling was assayed in fibroblasts overexpres sing PDGFR. Tyro sine autophosphorylation of the IR and its signaling was assayed in fibroblasts overexpressing IR. Cells were seeded in 6-well plates (MCF7-250,000 cells/well, PC3-150,000 cells/well, fibroblasts-140,000 cells/well) and 24 hours later medium was replaced by serum-free medium (DMEM supplemented with 100 units/ml penicillin and 100 μg/ml streptomycin). Following 20 hours of serum-starvation medium was replaced with medium containing various concentrations of the inhibitors in 0.1% DMSO for additional 4 hours. Cells were then stimulated for 5 min with 50 ng/ml IGF-1 (MCF7 cells), 20 ng/ml EGF (PC3 cells), 50 ng/ml PDGF (fibroblasts overexpressing PDGFR) or 100 nM insulin (fibroblasts overexpressing IR), washed twice with PBS and lysed by boiling sample buffer (10% glycerol, 50 mM Tris-HCl, pH 6.8, 3% SDS, and 5%, β-mercaptoethanol). Equal amounts of protein per lane were separated by 8% SDS-PAGE and transferred to a nitrocellulose membrane (Sartorius AG). Phosphorylated proteins were immunoblotted with anti-phospho-IGF1R (phosphor-IGF1R), anti-phosphotyrosine-IRS1 (phospho-IRS1), anti-phospho(T308)Akt (phospho-PKB), anti-phospho-Erk (phospho-ERK), anti-phosphotyrosine 4G10&PY20 (pY-EGFR or pY-PDGFR), anti-phospho-Ser^636/639-IRS1 (pS^636/639-IRS1) and anti-phospho-STAT3 (phospho-STAT3) antibodies. Detection was performed with horseradish peroxidase-conjugated secondary antibody using the ECL system. Blots were then stripped of antibodies, blocked with TBST with 5% low fat milk and re-probed with antibodies detecting both the phosphorylated and the non-phosphorylated corresponding proteins e.g. IGF1Rβ, IRS1, PKB, ERK, IRβ, PDGFR and Stat3.
(§2) In addition, lysates were prepared from cells exposed to inhibitors at various concentrations for 24 hours in the presence or the absence of FCS without stimulation. Lysate preparation and western blot were the same as described above. Apoptosis was detected by immunoblotting with rabbit anti-PARP antibodies.

Test [2] relates to YURIF. As to the kind of experiment: Proliferation assay YURIF. The format is cell-based. To be noted: Homo sapiens; Table 4; 72 hours incubation; read-out: Inhibition of human metastatic melanoma cells, YURIF IC50. The protocol:
(§3) Various cancer cell lines (listed in table 1) were plated at a density of 1000-5000 cells/well in 96-well plates in 90111 growth medium containing 10% FCS, 100 units/ml penicillin and 100 μg/ml streptomycin. Inhibitors were added a day later in 10 μl of 1% DMSO in DDW to obtain final concentrations of 0, 0.1, 0.3, 1, 3, and 10 μM. The final concentration of DMSO (0.1% DMSO) was kept constant in all samples. Medium with inhibitors was refreshed a day and two days later. Following exposure of the cells to the inhibitors for 72 hours at 37° C., the cells were fixed in 0.5% gluteraldehyde in medium for 10 min, washed three times with DDW, once with 0.1M sodium borate buffer pH 8.5 and stained with 1% methylene blue dissolved in 0.1M borate buffer solution for 60 min. Excess dye was washed out and cell-bound dye was eluted with 200 μl/well of 0.1 M HCl. The optical density value was read at 620 nm in ELISA plate reader. The data was analyzed in Microsoft Excel, using the vehicle control as 100% proliferation. The assays were performed in triplicates. The values in table 1 represent IC50 values derived from the dose-dependent growth curves obtained.
(§4) Compounds 6, 7, 8, and 9 were tested for their inhibitory potential in cell proliferation assay. In this assay cells were exposed to increasing concentrations of the molecules (at 0.1% DMSO in all wells) a day after seeding. Medium and inhibitors were refreshed every day, and following three days of treatment, cells were fixed and stained with methylene-Blue. IC50 values were determined from the curves of the optical density against compound concentration. The assay was performed in triplicates.

For test [3], the system named is YUMAC. In words: Proliferation assay YUMAC. As to conditions: Homo sapiens; Table 4; 72 hours incubation; read-out: Inhibition of human metastatic melanoma cells, YUMAC IC50. The format is cell-based. The protocol:
as §3, §4

Test [4] deals with IRS1. In words: IRS1 Ser-phosphorylation in YUMAC cells. It counts as cell-based, human. To be noted: metastatic melanoma YUMAC cells. The protocol:
as §2

In test [5] the target is T1, IGF1R (Homo sapiens, UniProt P08069).
T1 construct: made in house
T1 sequence (P08069 31-1367, species assumed): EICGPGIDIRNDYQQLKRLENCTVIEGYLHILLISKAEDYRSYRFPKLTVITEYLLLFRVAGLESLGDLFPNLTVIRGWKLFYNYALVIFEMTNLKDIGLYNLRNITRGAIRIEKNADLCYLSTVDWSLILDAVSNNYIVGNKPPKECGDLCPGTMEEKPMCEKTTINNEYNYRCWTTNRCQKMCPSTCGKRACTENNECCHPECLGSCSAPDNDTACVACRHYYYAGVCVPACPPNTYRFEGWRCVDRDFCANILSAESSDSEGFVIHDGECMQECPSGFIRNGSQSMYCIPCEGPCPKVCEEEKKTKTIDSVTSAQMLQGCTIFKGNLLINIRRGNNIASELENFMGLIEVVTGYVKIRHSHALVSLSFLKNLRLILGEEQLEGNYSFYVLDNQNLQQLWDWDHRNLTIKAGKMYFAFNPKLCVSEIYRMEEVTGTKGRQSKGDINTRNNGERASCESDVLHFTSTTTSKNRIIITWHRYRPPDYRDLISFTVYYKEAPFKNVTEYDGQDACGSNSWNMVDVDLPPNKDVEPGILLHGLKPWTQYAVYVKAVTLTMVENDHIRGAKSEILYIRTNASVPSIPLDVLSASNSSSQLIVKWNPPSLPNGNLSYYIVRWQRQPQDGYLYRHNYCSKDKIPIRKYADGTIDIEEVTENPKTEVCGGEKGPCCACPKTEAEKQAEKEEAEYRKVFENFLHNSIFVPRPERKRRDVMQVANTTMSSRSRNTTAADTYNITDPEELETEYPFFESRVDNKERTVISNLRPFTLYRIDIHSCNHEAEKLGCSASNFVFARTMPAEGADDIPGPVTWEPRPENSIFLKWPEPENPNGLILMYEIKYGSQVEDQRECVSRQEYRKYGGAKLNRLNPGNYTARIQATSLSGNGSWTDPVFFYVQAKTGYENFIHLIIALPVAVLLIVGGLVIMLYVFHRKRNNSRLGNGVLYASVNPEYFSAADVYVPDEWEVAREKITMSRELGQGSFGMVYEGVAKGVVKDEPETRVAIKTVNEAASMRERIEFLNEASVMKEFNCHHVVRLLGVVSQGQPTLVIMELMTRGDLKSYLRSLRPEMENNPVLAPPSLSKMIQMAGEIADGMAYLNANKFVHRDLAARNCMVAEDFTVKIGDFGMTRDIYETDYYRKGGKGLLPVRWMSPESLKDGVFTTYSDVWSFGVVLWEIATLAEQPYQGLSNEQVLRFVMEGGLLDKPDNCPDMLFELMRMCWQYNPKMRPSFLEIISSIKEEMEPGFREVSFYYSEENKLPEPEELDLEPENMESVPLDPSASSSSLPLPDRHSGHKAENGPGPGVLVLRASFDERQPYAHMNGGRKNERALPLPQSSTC
As to the kind of experiment: IGF1R cellular free kinase assay (pGT substrate phosphorylation). It counts as biochemical. To be noted: partially purified IGF1R; 20 μM ATP; read-out: IC50 values of IGF1R activity in cellular free kinase assay. The protocol: The general protein-tyrosine kinase substrate, poly(Glu,Tyr) 4:1 (pGT), was coated onto a 96-well Maxisorp plates (Nunc) by adding 125 μl of 0.1 mg/ml pGT in PBS to each well. Plates were sealed and incubated for 16 hours at 37° C., washed once with TBST (10 mM Tris-HCl, pH 7.5, 50 mM NaCl, and 0.1% Triton X-100) and once with DDW, dried for 2-3 hours, and stored at 4° C. […] The plate was then washed with TBS with 0.2% Tween 20 (TBST) and blocked with 0.5% BSA in TBST. Mouse monoclonal anti-phosphotyrosine antibody, conjugated to Horse radish peroxidase (PT-66, 1:50000) was added to the plate. Following incubation for 45 min at room temperature, the plate was washed repeatedly with TBST. Detection was carried out with a color reagent, 2,2′-azido-bis-3-ethylbenzithiazoline-6-sulfonic acid, in citrate-phosphate buffer, pH 4.0, with 0.004% H2O2 for 10 min and monitored at 405 nm, all at room temperature. IC50 values of inhibitors were calculated using the REGRESSION program. The assay was optimized with respect to the amount of IGF-1R (partially purified from cells overexpressing IGF1R), reaction time, and ATP concentration. The signal was linear for 30 min in the range of IGF1R protein concentrations up to 35 ng/well.

Test [6] has as its system metastatic melanoma YUMAC cells. As to the kind of experiment: Apoptosis (cleaved PARP) in YUMAC cells. The format is cell-based, human. To be noted: 24 hours of exposure, 3 μM. The protocol: as §2
The target in test [7] is T1, IGF1R. As to the kind of experiment: Inhibition of IGF1-induced signaling in intact MCF7 cells (western blot). The format is cell-based. As to conditions: 4 h exposure, IGF1 stimulation. The protocol: as §1
In general terms: In western blotting, separated proteins are transferred to a membrane and probed.

Each structure is given as a SMILES string. pIC50: −log10 of the molar value. “Also recorded” adds a separate entry of the source.

As to `N#C/C(=C\c1cc(O)c(O)c(C(F)(F)F)c1)C(=S)NCc1cc(O)c(O)c(O)c1` [Compound 13], the “IRS1 Ser-phosphorylation” value in test [1] is on record as “trigger IRS1-ser phosphorylation”; in test [4], “trigger IRS1-ser phosphorylation; also recorded: detected”. Moreover, the pIC50 (as a rule, the IC50 on a negative log10 scale, so that one unit is a factor of ten) is 6.06 in test [2], 6.00 in test [3] and 7.17 in test [5]. Moreover, the “Cleavage of PARP (apoptosis)” value in test [6] is “detected”.
Consider `N#C/C(=C\c1cc(O)c(O)c(F)c1)C(=S)NCc1cc(O)c(O)c(O)c1` [Compound 12], for which, in test [5], the pIC50 is 6.77.
In the case of `N#C/C(=C\c1ccc2oc(=S)[nH]c2c1)C(=O)c1ccc(O)c(O)c1` [Compound 20, reference compound], the “Inhibition of IGF1R autophosphorylation and IGF1-induced signaling (IRS1 pTyr, Akt/PKB, MAPK/ERK)” value in test [7] is reported as “had no effect on the signaling”.
On to `N#C/C(=C\c1cc(O)c(O)c(Br)c1)C(=S)NCc1ccc(O)c(O)c1` [Compound 15], for which, in test [5], the pIC50 was 6.94.
As to `N#C/C(=C\c1cc(O)c(O)c(O)c1)C(=S)NCc1cc(O)c(O)c(Br)c1` [Compound 17], the negative-log IC50 (pIC50) was less than 5.00 in test [2], less than 5.00 in test [3] and 7.31 in test [5].
Regarding `N#C/C(=C\c1cccc(Br)c1)C(=S)NCc1cc(O)c(O)c(O)c1` [Compound 19], the negative logarithm of the IC50 (pIC50) in test [2] is less than 5.00; in test [3], roughly 5.00; in test [5], 6.15.
Take `N#C/C(=C\c1cc(O)c(O)c(I)c1)C(=S)NCc1ccc(O)c(O)c1` [Compound 16]: the negative-log IC50 (pIC50) in test [5] was 6.71.
For `Oc1cc(CNC(=S)/C=C/c2cc(O)c(O)c(I)c2)cc(O)c1O` [Compound 10], the “IRS1 Ser-phosphorylation” value in test [1] was “trigger IRS1-ser phosphorylation”; in test [4], “trigger IRS1-ser phosphorylation; also recorded: detected”. The values for the pIC50 in test [2], in test [3] and in test [5] were 6.33, 6.52 and 7.48, respectively. Also, the “Cleavage of PARP (apoptosis)” value in test [6] was “detected”.
In the case of `Oc1cc(/C=C/C(=S)NCc2cc(O)c(O)c(Br)c2)cc(Br)c1O` [Compound 18], the pIC50 in test [5] was 6.71.
As to `N#C/C(=C\c1cc(O)c(O)c(Cl)c1)C(=S)NCc1cc(O)c(O)c(O)c1` [Compound 11], the “IRS1 Ser-phosphorylation” value in test [1] and in test [4] was “trigger IRS1-ser phosphorylation” throughout. Further, the values for the pIC50 in test [2], in test [3] and in test [5] were 5.92, 5.92 and 6.70 to 7.52, respectively.

These data come from patent US8058309B2, “Protein kinase modulators and therapeutic uses thereof” (Novotyr Therapeutics Ltd., priority 2006, dated 2011).
